The target in series [1] is T1, UDP-glucuronosyltransferase 1A3 (Homo sapiens, UniProt P35503).
T1 sequence (P35503 whole entry): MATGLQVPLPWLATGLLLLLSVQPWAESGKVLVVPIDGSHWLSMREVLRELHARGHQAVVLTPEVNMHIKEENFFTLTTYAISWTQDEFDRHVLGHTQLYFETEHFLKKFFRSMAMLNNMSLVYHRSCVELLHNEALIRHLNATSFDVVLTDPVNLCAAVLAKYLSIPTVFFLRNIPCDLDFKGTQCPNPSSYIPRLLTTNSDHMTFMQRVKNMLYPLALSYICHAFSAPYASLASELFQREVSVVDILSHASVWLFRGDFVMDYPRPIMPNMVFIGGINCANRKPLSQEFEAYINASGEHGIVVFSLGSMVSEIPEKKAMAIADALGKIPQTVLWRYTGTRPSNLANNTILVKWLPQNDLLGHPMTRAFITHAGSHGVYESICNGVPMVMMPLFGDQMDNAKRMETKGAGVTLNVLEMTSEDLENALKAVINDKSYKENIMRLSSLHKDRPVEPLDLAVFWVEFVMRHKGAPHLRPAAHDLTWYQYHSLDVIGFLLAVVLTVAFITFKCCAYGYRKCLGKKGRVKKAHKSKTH
Kind of series: Drug metabolism assessed as human recombinant UGT1A3-mediated compound formation treated with AMG 853 after 45 mins by LC-MS/MS analysis in presence of UDPGA. The format is ADME. The note with it: recombinant enzyme, 0.75 h.

Series [2] concerns the target T1, UDP-glucuronosyltransferase 1A3. Kind of series: Drug metabolism assessed as human recombinant UGT1A3-mediated compound formation treated with AMG 853 at 10 uM after 30 mins by LC-MS/MS analysis. The format is ADME. The note with it: recombinant enzyme, 0.5 h.
Series [3] addresses T2, Cytochrome P450 2C8 (Homo sapiens, UniProt P10632).
T2 sequence (P10632 whole entry): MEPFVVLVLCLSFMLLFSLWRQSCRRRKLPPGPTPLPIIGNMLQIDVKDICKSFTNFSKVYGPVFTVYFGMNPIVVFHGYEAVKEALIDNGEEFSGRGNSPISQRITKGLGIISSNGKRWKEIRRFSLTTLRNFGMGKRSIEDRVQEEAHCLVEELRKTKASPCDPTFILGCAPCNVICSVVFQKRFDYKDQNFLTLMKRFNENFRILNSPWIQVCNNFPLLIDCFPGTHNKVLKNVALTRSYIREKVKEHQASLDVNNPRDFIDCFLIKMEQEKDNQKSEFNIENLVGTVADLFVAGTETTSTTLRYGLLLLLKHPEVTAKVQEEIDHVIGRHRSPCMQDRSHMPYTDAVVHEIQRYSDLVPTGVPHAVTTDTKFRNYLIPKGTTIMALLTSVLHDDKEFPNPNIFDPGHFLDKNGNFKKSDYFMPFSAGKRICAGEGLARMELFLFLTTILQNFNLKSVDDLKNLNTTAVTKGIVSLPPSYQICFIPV
Put plainly: Linear mixed inhibition of CYP2C8 in human liver microsomes assessed as rosiglitazone demethylation after 20 mins by LC-MS/MS analysis. The format is ADME. (In general: Liver microsomes are vesicles of endoplasmic reticulum, rich in cytochrome P450 enzymes.)

In series [4] the target is Cytochrome P450 3A4 (Homo sapiens, UniProt P08684). Kind of series: Drug metabolism assessed as recombinant CYP3A4 (unknown origin)-mediated 2-(5-chloro-4-(2-(2-chloro-4-cyclopropylphenylsulfonamido)-4-(1-hydroxy-2-methylpropan-2-ylcarbamoyl)phenoxy)-2-fluorophenyl)acetic acid formation at 10 uM after 30 mins by LC-MS/MS analysis. The format is ADME. The note with it: recombinant enzyme, 0.5 h.

Series [5] deals with CYP2B6. Put plainly: Upregulation of CYP2B6 mRNA expression in human hepatocytes at 0.3 to 30 uM treated every 24 hrs for 2 days measured on day 5 relative to control. The format is ADME, cell-based, Hepatocyte. The note with it: read-out: FC.
For series [6], the target named is Cytochrome P450 3A5 (Homo sapiens, UniProt P20815). Put plainly: Drug metabolism assessed as recombinant CYP3A5 (unknown origin)-mediated 2-(4-(4-(tert-butylcarbamoyl)-2-(2-chloro-4-(1-hydroxycyclopropyl)phenylsulfonamido)phenoxy)-5-chloro-2-fluorophenyl)acetic acid formation at 10 uM after 30 mins by LC-MS/MS analysis. The format is ADME. The note with it: recombinant enzyme, 0.5 h.

Series [7] concerns the target T3, Cytochrome P450 2J2 (Homo sapiens, UniProt P51589).
T3 sequence (P51589 whole entry): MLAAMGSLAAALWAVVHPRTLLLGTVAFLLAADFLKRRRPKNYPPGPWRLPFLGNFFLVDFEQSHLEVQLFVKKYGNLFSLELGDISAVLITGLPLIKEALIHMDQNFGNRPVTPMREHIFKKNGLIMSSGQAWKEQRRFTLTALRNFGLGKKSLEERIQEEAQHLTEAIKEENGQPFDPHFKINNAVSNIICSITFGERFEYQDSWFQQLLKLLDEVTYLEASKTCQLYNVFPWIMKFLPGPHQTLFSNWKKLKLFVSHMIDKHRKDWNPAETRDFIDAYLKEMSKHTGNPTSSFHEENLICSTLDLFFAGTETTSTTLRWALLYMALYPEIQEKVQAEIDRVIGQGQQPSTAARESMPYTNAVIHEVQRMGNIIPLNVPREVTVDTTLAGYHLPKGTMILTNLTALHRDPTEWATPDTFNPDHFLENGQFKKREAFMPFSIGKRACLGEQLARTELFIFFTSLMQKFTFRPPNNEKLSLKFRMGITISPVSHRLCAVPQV
Kind of series: Drug metabolism assessed as recombinant CYP2J2 (unknown origin)-mediated 2-(4-(4-(tert-butylcarbamoyl)-2-(2-chloro-4-(1-hydroxycyclopropyl)phenylsulfonamido)phenoxy)-5-chloro-2-fluorophenyl)acetic acid formation at 10 uM after 30 mins by LC-MS/MS analysis. The format is ADME. The note with it: recombinant enzyme, 0.5 h.

Series [8] can be described thus: AUC (0 to infinity) in healthy human at 50 mg, po in presence of ketoconazole. The format is ADME, organism-based. Set-up: dose 50 mg, route oral, time infinity. The note with it: plasma.
Series [9] has as its target UDP-glucuronosyltransferase 2B15 (Homo sapiens, UniProt P54855). Put plainly: Drug metabolism assessed as human recombinant UGT2B15-mediated (2S,3S,4S,5R,6S)-6-(2-(4-(4-(tert-butylcarbamoyl)-2-(2-chloro-4-cyclopropylphenylsulfonamido)phenoxy)-5-chloro-2-fluorophenyl)acetoxy)-3,4,5-trihydroxytetrahydro-2H-pyran-2-carboxylic acid formation at 10 uM after 30 mins by LC-MS/MS analysis. The note with it: recombinant enzyme, 0.5 h. The format is ADME.

SMILES strings stand for the structures.

Chain of Cytochrome P450 3A5 (P20815 whole entry): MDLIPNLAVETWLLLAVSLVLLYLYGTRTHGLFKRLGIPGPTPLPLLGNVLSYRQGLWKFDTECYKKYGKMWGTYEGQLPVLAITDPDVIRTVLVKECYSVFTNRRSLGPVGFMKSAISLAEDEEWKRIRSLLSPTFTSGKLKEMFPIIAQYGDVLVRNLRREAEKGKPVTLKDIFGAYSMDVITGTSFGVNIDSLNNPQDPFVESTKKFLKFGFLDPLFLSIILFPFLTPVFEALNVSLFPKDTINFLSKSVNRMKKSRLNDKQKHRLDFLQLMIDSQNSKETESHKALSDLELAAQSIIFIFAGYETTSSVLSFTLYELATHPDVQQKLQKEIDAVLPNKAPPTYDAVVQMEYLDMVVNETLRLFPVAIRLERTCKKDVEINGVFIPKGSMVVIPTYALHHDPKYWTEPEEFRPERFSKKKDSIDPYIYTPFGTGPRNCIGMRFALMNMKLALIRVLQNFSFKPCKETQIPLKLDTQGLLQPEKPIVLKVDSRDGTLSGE
Chain of UDP-glucuronosyltransferase 2B15 (P54855 whole entry): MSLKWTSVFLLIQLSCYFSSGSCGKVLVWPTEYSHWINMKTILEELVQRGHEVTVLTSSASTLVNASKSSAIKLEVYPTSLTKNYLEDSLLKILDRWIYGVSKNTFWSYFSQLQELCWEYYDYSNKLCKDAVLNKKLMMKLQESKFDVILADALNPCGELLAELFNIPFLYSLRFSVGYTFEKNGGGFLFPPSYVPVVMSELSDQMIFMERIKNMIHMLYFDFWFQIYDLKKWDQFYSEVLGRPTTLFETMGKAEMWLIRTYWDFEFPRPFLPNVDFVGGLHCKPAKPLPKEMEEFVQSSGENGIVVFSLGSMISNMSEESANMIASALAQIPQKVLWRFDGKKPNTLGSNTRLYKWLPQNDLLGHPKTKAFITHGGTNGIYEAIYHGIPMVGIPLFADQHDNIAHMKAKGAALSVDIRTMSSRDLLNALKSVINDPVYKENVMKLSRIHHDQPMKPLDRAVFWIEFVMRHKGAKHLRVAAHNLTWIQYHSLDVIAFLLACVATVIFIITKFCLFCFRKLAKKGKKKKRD
Chain of Cytochrome P450 3A4 (P08684 whole entry): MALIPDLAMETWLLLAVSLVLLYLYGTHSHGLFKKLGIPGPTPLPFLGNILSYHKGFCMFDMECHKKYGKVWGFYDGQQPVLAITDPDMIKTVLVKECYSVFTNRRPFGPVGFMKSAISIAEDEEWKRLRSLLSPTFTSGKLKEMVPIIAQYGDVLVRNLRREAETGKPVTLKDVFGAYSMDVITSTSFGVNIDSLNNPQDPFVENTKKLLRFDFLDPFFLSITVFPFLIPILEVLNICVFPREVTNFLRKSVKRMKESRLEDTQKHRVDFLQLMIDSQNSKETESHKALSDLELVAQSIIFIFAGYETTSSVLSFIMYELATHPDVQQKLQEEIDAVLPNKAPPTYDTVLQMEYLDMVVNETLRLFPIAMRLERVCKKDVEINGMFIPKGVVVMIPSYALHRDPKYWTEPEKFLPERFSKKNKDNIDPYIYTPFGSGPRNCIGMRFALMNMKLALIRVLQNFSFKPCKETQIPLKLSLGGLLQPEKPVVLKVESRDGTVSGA

Consider `CC(C)(C)NC(=O)c1ccc(Oc2cc(F)c(CC(=O)O[C@@H]3O[C@H](C(=O)O)[C@@H](O)[C@H](O)[C@H]3O)cc2Cl)c(NS(=O)(=O)c2ccc(C3CC3)cc2Cl)c1`, for which, in series [1], the S50 came to 379.2 µM and the maximal velocity (Vmax) is given as 39.1 pmol/min/mg. Moreover, the Drug metabolism entry in series [2] was “metabolite_detected”. Moreover, the Ki in series [3] is 6.9 µM.
Consider `CC(C)(C)NC(=O)c1ccc(Oc2cc(F)c(CC(=O)O)cc2Cl)c(NS(=O)(=O)c2ccc(C3CC3)cc2Cl)c1` [VIDUPIPRANT], for which the Drug metabolism result in series [4] was “metabolite_detected”; in series [6], “metabolite_detected”; in [7], “metabolite_detected”; in series [9], “metabolite_not_detected”. For the same compound, the fold induction at 48 h, up to 30 µM in series [5] turned out to be 1.7. Also, the AUC(0-inf) in series [8] worked out at 800 ng·h/mL.

By Vmax is commonly meant the rate approached at saturating substrate. The term Ki denotes the dissociation constant of the complex between target and ligand, obtained from inhibition or displacement. The AUC(0-inf) is the area under the concentration-time curve extrapolated to infinity.

These data come from ChEMBL document CHEMBL3526017, “Predicting the drug interaction potential of AMG 853, a dual antagonist of the D-prostanoid and chemoattractant receptor-homologous molecule expressed on T helper 2 cells receptors” (Drug Metab Dispos, 2012).
